From patent publication US20100062067A1, “COMPOSITIONS COMPRISING MACROMOLECULAR ASSEMBLIES OF LIPID AND SURFACTANT” (MALVERN COSMECEUTICS LIMITED, priority 2006, published 2010)
Starred links: 1 amine or outer side, 2 acyl side, 3 side chain; linkers in the order of their positions; H or OH if unused. Positions of bridges follow the written chain, without caps; N, C: chain ends. Non-standard residues stand in square brackets, D forms with d. Residues, ends and D or L forms follow the SMILES beside them. X1 = CC(C)CCCCCCCCC[C@H](CC(=O)[*:1])O[*:2]

Test: not given
Conditions: Surf. Brij 35P 2.5%, lipid 90H 1.0%, co-surf. S LPC ca. 0.01% (as SL 80-3 0.05%), active agent 0.10%

Compound	Turbidity (FNU)
NC[C@@H]1O[C@H](O[C@H]2[C@@H](O)[C@H](O[C@@H]3[C@@H](O)[C@H](N)C[C@H](N)[C@H]3O[C@H]3O[C@H](CN)[C@@H](O)[C@H](O)[C@H]3N)O[C@@H]2CO)[C@H](N)[C@@H](O)[C@@H]1O.O=S(=O)(O)O [Neomycin sulphate]	19.76
O=C(CCCCc1ccc2c(c1)OCO2)N1CCCCC1 [Cosmoperine]	6.38
O=C(/C=C/c1ccc(O)c(O)c1)O[C@H](Cc1ccc(O)c(O)c1)C(=O)O [Rosmarinic acid (90%)]	31.5
CC(C)CCC[C@@H](C)[C@H]1CC[C@H]2C3=CC=C4C[C@@H](O)CC[C@]4(C)[C@H]3CC[C@]12C [7-dehydrocholesterol]	58.4
CCCC(=O)O[C@]1(C(=O)CO)CC[C@H]2[C@@H]3CCC4=CC(=O)CC[C@]4(C)[C@H]3[C@@H](O)C[C@@]21C [Hydrocortisone-17 butyrate]	55.9
CC(C)CCC[C@@H](C)[C@H]1CC[C@H]2[C@@H]3CC=C4C[C@@H](O)CC[C@]4(C)[C@H]3CC[C@]12C [Cholesterol]	10.91
O=C1OC2(c3cc(Br)c(O)c(Br)c3Oc3c2cc(Br)c(O)c3Br)c2c(Cl)c(Cl)c(Cl)c(Cl)c21 [D&C Red No. 27]	16.44
Nc1ccc(C(=O)O)cc1 [PABA]	8.81
O=C(O)Cc1ccccc1Nc1c(Cl)cccc1Cl [Diclofenac]	14.39
C[C@@H]1[C@H](O)[C@@H](C)/C=C/C=C/CC/C=C/C=C/C=C/C=C/C(O[C@H]2O[C@H](C)[C@@H](O)[C@H](N)[C@@H]2O)CC2O[C@](O)(CC(O)C(O)CCC(O)CC(O)CC(O)CC(=O)O[C@H]1C)CC(O)C2C(=O)O (some centres unmarked) [Nystatin]	21.3
COc1ccc(C(=O)CC(=O)c2ccc(C(C)(C)C)cc2)cc1 [Avobenzene]	52.9
CCCCCCCCCCCCCCCC(=O)OC[C@H](O)[C@H]1OC(=O)C(O)=C1O [Ascorbyl palmitate]	72.4
COc1ccc2cc([C@H](C)C(=O)O)ccc2c1 [Naproxen]	14.99
CC(Cc1ccc(O)c(O)c1)C(C)Cc1ccc(O)c(O)c1 (centres unmarked) [NDGA]	40.5
CC12CCC(CC1=O)C2(C)C (centres unmarked) [Camphor (S-Black)]	29.70
COc1ccc(C(=O)c2ccccc2)c(O)c1 [Eusolex 4360]	10.02
Clc1ccccc1C(c1ccccc1)(c1ccccc1)n1ccnc1 [Clotrimazole]	10.4
CC(C)CCC[C@@H](C)[C@H]1CC[C@H]2[C@@H]3CC=C4C[C@@H](OS(=O)(=O)O)CC[C@]4(C)[C@H]3CC[C@]12C [Cholesterol sulphate]	9.48
CC1=CCC(O)(C(C)C)CC1 (centres unmarked) [Melaleucol]	19.4
CCCCC(=O)O[C@]1(C(=O)CO)[C@@H](C)C[C@H]2[C@@H]3CCC4=CC(=O)C=C[C@]4(C)[C@@]3(F)[C@@H](O)C[C@@]21C [Betamethasone 17-valerate]	19.24
CCCCCCCCCCCCCCCCCCOC(=O)[C@@]1(C)CC[C@]2(C)CC[C@]3(C)C(=CC(=O)[C@@H]4[C@@]5(C)CC[C@H](O)C(C)(C)[C@@H]5CC[C@]43C)[C@@H]2C1 [Stearyl glycrrhetinate]	88.9
CCC(=O)O[C@]1(C(=O)CCl)[C@@H](C)C[C@H]2[C@@H]3CCC4=CC(=O)C=C[C@]4(C)[C@@]3(F)[C@@H](O)C[C@@]21C [Clobetasol Propionate]	23.3

Same assay, conditions: Surf. Brij 35P 2.5%, lipid 90H 1.0%, co-surf. S LPC ca. 0.01% (as SL 80-3 0.05%), active agent 0.20%

Compound	Turbidity (FNU)
COC(=O)[C@@H]1[C@H]2C[C@H]3c4[nH]c5ccccc5c4CCN3C[C@@H]2CC[C@@H]1O.Cl [Yohimbine HCl USP HO]	22.78

Same assay, conditions: Surf. Brij 35P 2.5%, lipid 90H 1.0%, co-surf. S LPC ca. 0.01% (as SL 80-3 0.05%), active agent 0.25%

Compound	Turbidity (FNU)
C=CCCCCCCCCC(=O)N[C@@H](Cc1ccccc1)C(=O)O [SepiWhite MSH]	10.43
C[C@]12CCC(=O)C=C1CC[C@@H]1[C@@H]2[C@@H](O)C[C@@]2(C)[C@H]1CC[C@]2(O)C(=O)CO [Hydrocortisone]	10.00
CC(C)c1c(O)ccc2c1CC[C@H]1C(C)(C)CCC[C@]21C [Totarol ®]	12.89
Cc1cc(CC(C)CC(C)(C)C)n(O)c(=O)c1.NCCO (centres unmarked) [Octopirox ®]	9.10
OCc1cc(C(O)CNCCCCCCOCCCCc2ccccc2)ccc1O (centres unmarked) [Salmeterol xinafoate]	5.49
COC(=O)[C@@H]1[C@H]2C[C@H]3c4[nH]c5ccccc5c4CCN3C[C@@H]2CC[C@@H]1O.Cl [Yohimbine HCl USP]	13.42
COC(=O)[C@@H]1[C@H]2C[C@H]3c4[nH]c5ccccc5c4CCN3C[C@@H]2CC[C@@H]1O.Cl [Yohimbine HCl Crystalline]	9.85
O=C(OCc1ccccc1)c1cccnc1 [Benzyl nicotinate]	18.84
CC12CCC(CC1=O)C2(C)C (centres unmarked) [Camphor]	26.80
CC1CCC(C(C)C)C(OC(=O)[C@@H]2CCC(=O)N2)C1 (some centres unmarked) [Questice CQ U/A]	46.81

Same assay, conditions: Surf. Brij 35P 2.5%, lipid 90H 1.0%, co-surf. S LPC ca. 0.01% (as SL 80-3 0.05%), active agent 0.80%

Compound	Turbidity (FNU)
Cc1cc(CC(C)CC(C)(C)C)n(O)c(=O)c1.NCCO (centres unmarked) [Octopirox ®]	6.91

Same assay, conditions: Surf. Brij 35P 2.5%, lipid 90H 1%, co-surf. S LPC ca. 0.01% (as SL 80-3 0.05%), active agent […]

Compound	Turbidity (FNU)
CC12CCC(/C(=C\c3ccccc3)C1=O)C2(C)C (centres unmarked) [Unisol S-22]	14.59

Same assay, conditions: Surf. Protasorb L-20 2.5%, lipid 90H 1.0%, co-surf. S LPC ca. 0.01% (as SL 80-3 0.05%), active agent 0.10%

Compound	Turbidity (FNU)
Vitamin E	29.60

Same assay, conditions: Surf. Volpo L23 2.5%, lipid 90H 1.0%, co-surf. S LPC ca. 0.01% (as SL 80-3 0.05%), active agent 0.10%

Compound	Turbidity (FNU)
O=C1OC2(c3cc(Br)c(O)c(Br)c3Oc3c2cc(Br)c(O)c3Br)c2c(Cl)c(Cl)c(Cl)c(Cl)c21 [D&C Red No. 27]	21.85

Same assay, conditions: Surf. Volpo L23 2.5%, lipid 90H 1.0%, co-surf. S LPC ca. 0.01% (as SL 80-3 0.05%), active agent 0.25%

Compound	Turbidity (FNU)
Cc1cc(C2CCCCC2)n(O)c(=O)c1 [Ciclopirox olamine, reference compound]	10.85
Cc1c(C2(c3cc(Br)c(O)c(Br)c3C)OS(=O)(=O)c3ccccc32)cc(Br)c(O)c1Br [Bromocresol Green]	19.40
CCCCCCCCCCCCCCOC(=O)[C@@H]1CCC(=O)N1 [Myristidone ®]	58.60
Clc1ccc(COC(Cn2ccnc2)c2ccc(Cl)cc2Cl)cc1 (centres unmarked) [Econazole nitrate]	71.50
CCCCCCCCCCCCOC(=O)[C@@H]1CCC(=O)N1 [Laurydone ®]	61.70

Test: Turbidity of surfactant/lipid compositions, formation of macromolecular complexes (Example 1)
Type: physicochemical
Conditions: 2.5% surfactant, 1% 90H lipid, ca. 0.01% S LPC co-surfactant (as 0.05% SL 80-3) in water, room temperature
Procedure: Briefly, to the appropriate volume of warm water (ca. 60° C.), SL 80-3 was added. […] 90H was then added gradually, with heating and stirring maintained throughout and for a further 45 minutes after completion.
After mixing the solution was stirred and heated to around 60-70° C.
The required quantity of warm lipid emulsion was slowly added to the warm surfactant solution while stirring with the temperature maintained.

Compound	Average Turbidity [FNU]
CCCCCCCCCC(=O)O [Capric Acid, Decanoic acid]	>150
Laureth-9 [P9641]	>150
O=C(O)c1ccccc1 [Benzoic Acid, Benzoic acid]	>150
CC(C)CCCCCCCCC[C@@H]1CC(=O)N[C@@H](CCC(=O)O)C(=O)N[C@@H](CC(C)C)C(=O)N[C@H](CC(C)C)C(=O)N[C@@H](C(C)C)C(=O)N[C@@H](CC(=O)O)C(=O)N[C@H](CC(C)C)C(=O)N[C@@H](CC(C)C)C(=O)O1 [Aminofect, Surfactin] (EL[dL]VD[dL]L; linker N-C via X1)	13.16
O=C(O)C(O)c1ccccc1 (racemic) [Mandelic Acid, DL-Mandelic acid]	>150
C[C@H](CCC(=O)[O-])[C@H]1CC[C@H]2[C@@H]3[C@H](O)C[C@@H]4C[C@H](O)CC[C@]4(C)[C@H]3C[C@H](O)[C@]12C.[Na+] [Sodium cholate]	23.3
Laureth-10 [P9769]	14.02
CCCCCCCC(=O)O [Octanoic Acid, Octanoic acid]	>150
CCCCCCCCCCCCCCCC(=O)O [Palmitic Acid, Hexadecanoic acid]	>150
CCCCCCCCCCCC(=O)O [Lauric Acid, Dodecanoic acid]	>150
CCCCCCCC/C=C\CCCCCCCC(=O)[O-].[K+] [Potassium Oleate, Potassium oleate]	>150
CCCCCCCCCCCCOCCOCCOCCOCCOCCOCCOCCOCCO [compound 74680, Laureth-8]	131
Sodium deoxycholate [reference compound]	32.6
CCCCCC(=O)O [Caproic Acid, Hexanoic acid]	>150
O=C(O)c1ccccc1O [Salicylic Acid, 2-Hydroxybenzoic acid]	>150

Test: not given
Conditions: literature or reported; cited from earlier work

Compound	HLB number
CCCCCCCCCCCCOCCOCCOCCOCCOCCOCCOCCOCCO [compound 74680, Laureth-8]	13.1

Same assay, conditions: rough average of manufacturer and literature values; cited from earlier work

Compound	Average HLB
Laureth-9 [P9641]	13.3
Laureth-10 [P9769]	13.5
CCCCCCCCCCCCOCCOCCOCCOCCOCCOCCOCCOCCO [compound 74680, Laureth-8]	13.1
Sodium deoxycholate [reference compound]	24
